Experimental findings from ChEMBL document CHEMBL2331258, “HR-MALDI-MS imaging assisted screening of β-carboline alkaloids discovered from Mycena metata” (2013) are described below.

Calls of active or inactive are those of the source. No cut-off for these calls is given here.

One assay concerns Cladosporium cucumerinum. Nature of the assay: Antibacterial activity against Cladosporium cucumerinum CBS 177.54 assessed as growth inhibition at 0.5 umol at 18 degC after 3 to 5 days by agar diffusion assay. In kind it is functional, organism-based. For orientation: In agar diffusion tests the substance spreads into inoculated agar from a disc or well.
Another assay concerns Escherichia coli. Nature of the assay: Antibacterial activity against Escherichia coli assessed as growth inhibition at 0.5 umol at 37 degC after 24 hrs by agar diffusion assay. In kind it is functional, organism-based.
For assay [1], the system named is Brevibacillus brevis. Kind of assay: Antibacterial activity against Bacillus brevis NCCB 89173 assessed as growth inhibition at 0.5 umol at 37 degC after 24 hrs by agar diffusion assay. In kind it is functional, organism-based.
In assay [2] the test system is Bacillus pumilus. Nature of the assay: Antibacterial activity against Bacillus pumilus assessed as growth inhibition at 0.5 umol at 26 degC after 24 hrs by agar diffusion assay. It is filed as functional, organism-based.
Assay [3] has as its system Bacillus subtilis. Kind of assay: Antibacterial activity against Bacillus subtilis NCCB 1089 assessed as growth inhibition at 0.5 umol at 37 degC after 24 hrs by agar diffusion assay. In kind it is functional, organism-based.
Another assay concerns Saccharomyces cerevisiae. Nature of the assay: Antibacterial activity against Saccharomyces cerevisiae assessed as growth inhibition at 0.5 umol at 26 degC after 24 hrs by agar diffusion assay. It is filed as functional, organism-based.
For assay [4], the system named is Bacillus subtilis. Nature of the assay: Antibacterial activity against Bacillus subtilis NCCB 1089 assessed as diameter of growth inhibition zone at 0.5 umol at 37 degC after 24 hrs by agar diffusion assay. It is filed as functional.
In assay [5] the test system is Bacillus pumilus. Nature of the assay: Antibacterial activity against Bacillus pumilus assessed as diameter of growth inhibition zone at 0.5 umol at 26 degC after 24 hrs by agar diffusion assay. It is filed as functional.
Assay [6] concerns Brevibacillus brevis. Kind of assay: Antibacterial activity against Bacillus brevis NCCB 89173 assessed as diameter of growth inhibition zone at 0.5 umol at 37 degC after 24 hrs by agar diffusion assay. In kind it is functional.

With `C[C@@H](O)[C@H](NC(=O)c1cc2c([nH]c3ccc(O)cc32)c(CCC(=O)N2CCC[C@H]2C(=O)O)n1)C(=O)O`, the “growth inhibition (GI)” value in the assay on Cladosporium cucumerinum, with Escherichia coli, in the assay with Brevibacillus brevis [1], in the assay on Bacillus pumilus [2], in the assay on Bacillus subtilis [3] and in the assay with Saccharomyces cerevisiae was “inactive” in each case.

As for `NCCC[C@H](N)CC(=O)N[C@@H]1[C@@H](O)[C@H](OC(N)=O)[C@@H](CO)O[C@H]1/N=C1\N[C@@H]2[C@H](O)CNC(=O)[C@H]2N1` [NOURSEOTHRICIN], the “diameter of the inhibition zone (DIZ)” value worked out at 14 mm in the assay with Bacillus subtilis [4], 25 mm in the assay on Bacillus pumilus [5] and 25 mm in the assay on Brevibacillus brevis [6].
